Test results taken from patent publication US4540705A, “Antidepressant imidazolines and related compounds” (priority 1983, dated 1985).
Read-outs that look alike come from different tables or passages of the source.

How the values were obtained:
[1] = target: T1, α2 -adrenergic, isolated rat vas deferens (Rattus norvegicus, UniProt P22909); assay: Vas Deferens Assay: antagonism of clonidine-induced inhibition of twitch height; type: biochemical
T1 construct: isolated, electrically stimulated rat vas deferens; from tissue; host or cells: isolated rat vas deferens
T1 sequence (P22909 1-465): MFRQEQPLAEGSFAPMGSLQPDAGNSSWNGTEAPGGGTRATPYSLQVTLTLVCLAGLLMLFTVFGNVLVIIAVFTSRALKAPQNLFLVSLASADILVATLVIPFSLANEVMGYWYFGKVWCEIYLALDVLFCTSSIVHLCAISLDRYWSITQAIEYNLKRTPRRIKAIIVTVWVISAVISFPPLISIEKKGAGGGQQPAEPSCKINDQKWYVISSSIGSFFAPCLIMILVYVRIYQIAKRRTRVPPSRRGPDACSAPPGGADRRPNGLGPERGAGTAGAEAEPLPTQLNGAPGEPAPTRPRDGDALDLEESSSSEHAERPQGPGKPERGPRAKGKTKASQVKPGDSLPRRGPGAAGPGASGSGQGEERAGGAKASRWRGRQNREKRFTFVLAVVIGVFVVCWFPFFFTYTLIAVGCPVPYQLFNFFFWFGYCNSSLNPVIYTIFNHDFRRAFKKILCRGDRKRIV
Protocol: (§1) The α2 -adrenergic antagonist activity is measured by three screening methods, described as follows:
Activity is determined by assessing the ability of compounds to antagonize the inhibition of twitch height induced by clonidine in the isolated, electrically stimulated rat vas deferens. […] The tissue is then rinsed to remove clonidine and, when the twitch height has returned to normal, the test compound is added. The ability of clonidine to inhibit twitch height is then again determined, and the clonidine-induced inhibition in the presence of the test compound is used to calculate percent antagonism of clonidine. Results are recorded in terms of percent inhibition at the concentration of antagonist used, or as pA2 values, determined by the Schild method; cf. Tallarida and Murray, Manual of Pharmacologic Calculations, pp. 29-32 (Springer-Verlag, 1981).

mice = assay: Prevention of tetrabenazine-induced ptosis in mice; type: in vivo; settings: Mus musculus, read-out: Tetrabenazine Reversal ED50
Excerpt: A further measure of potential andidepressant activity was obtained by determining the effectiveness of the compounds of the invention in prevention of tetrabenazine-induced ptosis in mice by the method described by Barnett et al., Int. J. Neuropharmacol. 8, 353-360 (1969). The results were expressed in terms of ED50 values (effective dose in 50% of the animals).

[2] = target: T2, α2 -adrenergic binding sites (receptor) (Rattus norvegicus, UniProt P22909); assay: Tritiated Clonidine Receptor Binding Assay; settings: for inhibition at 1 µM: at 1000 nM, read-out: Clonidine [^3 H] Binding % I.
T2 construct: to displace ^3 H-clonidine (an α2 -adrenergic agonist) from membranes of rat brain; from tissue; host or cells: rat cerebral cortex homogenate (membranes)
T2 sequence (P22909 1-465): T1 sequence (P22909 1-465)
Protocol: as §1
(1) Tritiated Clonidine Receptor Binding Assay
Affinity is determined by assessing the ability of compounds to displace ^3 H-clonidine (an α2 -adrenergic agonist) from membranes of rat brain. Homogenates of rat cerebral cortex are incubated with 0.4 nM ^3 H-clonidine which binds to the α2 -adrenergic binding sites (receptor) present on the membranes of the homogenate. Compounds that bind to the α2 -adrenergic receptor, when added to the incubation mixture, will displace ^3 H-clonidine from its binding site, thereby diminishing the amount of bound radioactivity. The amount of ^3 H-clonidine still bound is quantitated by liquid scintillation spectrometry. The results are determined in terms of percent inhibition or as Ki values. Ki is a measure of the apparent affinity of the test substance for the α2 -adrenergic binding site, as determined by the method of Cheng and Prusoff, Biochemical Pharmacology 22, 3099 (1973).

[3] = system: mice (α2 -adrenergic antagonism of clonidine); assay: In vivo Antagonism of Clonidine-induced Anti-nociception (phenyl-p-quinone writhing); settings: Mus musculus; for ED50: read-out: Antagonism of Clonidine Analgesia ED50 -p.o.
Protocol: as §1
(3) In vivo Antagonism of Clonidine-induced Anti-nociception
The intraperitoneal administration of phenyl-p-quinone (PPQ) to mice elicits a nociceptive response which consists of abdominal writhing and extension of the hind limbs. This writhing response is prevented in mice treated with clonidine. When an α2 -adrenergic antagonist is given prior to clonidine, the mice display the writhing response when PPQ is administered. To groups of thirty male mice for each experiment the test compound dissolved in 0.9% sodium chloride was administered either subcutaneously or orally. Clonidine (0.2 mg/kg) was administered orally when the test compound was given subcutaneously and subcutaneously when the test compound was administered orally. Twenty minutes after the administration of clonidine, PPQ (3 mg/kg) was given intraperitoneally. […] The number of mice that writhed at least three times during the five minute observation period was counted. The number of mice that writhed was scored for each dose of antagonist, and the percentage reversal of clonidine-induced anti-nociception (analgesia) was calculated by dividing the number of animals writhing by the total number of test animals and multiplying the quotient by 100.

male rats = assay: Diuretic activity in male rats in comparison with hydrochlorothiazide; type: in vivo, rat
α2 -adrenergic [4] = assay: α2 -adrenergic antagonist activity (general statement)
Protocol: On the other hand, the sympathomimetic activity characteristic of the latter group of compounds is not present in the compounds of the present invention.
The α2 -adrenergic antagonist activity is measured by three screening methods, described as follows: […]

α2 -adrenergic [5] = settings: prior-art compounds; cited from earlier work
[6] = Schild method, clonidine 10 nM, read-out: Rat Vas Deferens pA2 (converted)
[7] = 0.4 nM ^3 H-clonidine, rat cerebral cortex homogenate, read-out: Clonidine [^3 H] Binding Ki
[8] = sc, 100 mg/kg s.c., read-out: Antagonism of Clonidine Analgesia % A.
[9] = rat, at 500 nM, clonidine 10 nM
[10] = 0.4 nM ^3 H-clonidine, rat cerebral cortex homogenate
[11] = sc, 30 mg/kg s.c., read-out: Antagonism of Clonidine Analgesia % A.
[12] = po, 100 mg/kg p.o., read-out: Antagonism of Clonidine Analgesia % A.

Cc1c(CC2=NCCN2)ccc2ccccc12 [17(e), 4,5-Dihydro-2-[(1-methyl-2-naphthalenyl)methyl]-1H-imidazole]
Kb [1, 6]: 0.0447 µM | ED50 (mice): 3 mg/kg | Ki [2, 7]: 0.007 µM | ED50 ([3]; po): 27 mg/kg | responders at 100 mg/kg [3, 8]: 70%

CC1=C(CC2=NCCN2C)CCc2ccccc21 [4(b), 2-[(3,4-Dihydro-1-methyl-2-naphthalenyl)methyl]-4,5-dihydro-1-methyl-1H-imidazole]
Rat Vas Deferens % A. ([1]; at 500 nM, clonidine 10 nM, 0.5 µM): 3% | inhibition at 0.5 µM [1, 9]: 2% | inhibition at 1 µM [2, 10]: 60% | responders at 100 mg/kg [3, 8]: 20%

CC1=C(Cc2ncc[nH]2)CCc2ccccc21 [Example 11, 2-[(3,4-Dihydro-1-methyl-2-naphthalenyl)methyl]-1H-imidazole]
Kb [1, 6]: 0.12 µM | Ki [2, 7]: 0.088 µM | responders at 30 mg/kg [3, 11]: 60%

C1=C(CC2=NCCN2)CCc2ccccc21 [Example 2(b), 2-[(3,4-Dihydro-2-naphthalenyl)methyl]-4,5-dihydro-1H-imidazole]
Kb [1, 6]: 0.0174 µM | ED50 (mice): 284 mg/kg | Ki [2, 7]: 0.028 µM | ED50 ([3]; po): 33 mg/kg | responders at 100 mg/kg [3, 8]: 90%

CC1=C(CC2=NCCN2)Cc2ccccc21 [9(b), 4,5-Dihydro-2-[(3-methyl-1H-inden-2-yl)methyl]-1H-imidazole]
Kb [1, 6]: 0.0195 µM | Ki [2, 7]: 0.007 µM | responders at 30 mg/kg ([3]; po, 30 mg/kg p.o., read-out: Antagonism of Clonidine Analgesia % A.): 10%

c1ccc2cc(CC3=NCCN3)ccc2c1 [Example 18, 4,5-Dihydro-2-(2-naphthalenylmethyl)-1H-imidazole]
Kb [1]: 0.0214 µM | ED50 (mice): 27 mg/kg | Ki [2]: 0.048 µM | responders at 100 mg/kg [3, 12]: 80% | ED50 ([3]; po): 53 mg/kg

C[C@@H]1c2ccccc2CC[C@H]1CC1=NCCN1 (relative stereo) [15(d), trans-4,5-Dihydro-2-[(1,2,3,4-tetrahydro-1-methyl-2-naphthalenyl)methyl]-1H-imidazole]
Ki [2, 7]: 0.401 µM | responders at 100 mg/kg [3, 8]: 30%

CCN1CCN=C1CC1=C(C)c2ccccc2CC1 [Example 5, 2-[(3,4-Dihydro-1-methyl-2-naphthalenyl)methyl]-1-ethyl-4,5-dihydro-1H-imidazole]
inhibition at 0.5 µM [1, 9]: 2% | Ki [2, 7]: 0.548 µM | responders at 100 mg/kg [3, 8]: 20%

CC1=C(CC2=NCCCN2)CCc2ccccc21 [Example 3, 2-[(3,4-Dihydro-1-methyl-2-naphthalenyl)methyl]-1,4,5,6-tetrahydropyrimidine]
Ki [2, 7]: 0.334 µM

CC1=C(CC2=NCC(C)(C)CN2)CCc2ccccc21 [Example 12, 2-[(3,4-Dihydro-1-methyl-2-naphthalenyl)methyl]-1,4,5,6-tetrahydro-5,5-dimethylpyrimidine]
increase of sodium excretion, activity relative to hydrochlorothiazide (male rats; 30 mg/kg oral): 38% | increase of sodium excretion, activity relative to hydrochlorothiazide (male rats; 100 mg/kg oral): 94% | diuretic activity (in words) (male rats; in comparison with hydrochlorothiazide): found to possess diuretic activity | α2 -adrenergic antagonist activity (in words) (α2 -adrenergic [4]): apparently devoid of any significant α2 -adrenergic antagonist properties

C1=C(CC2=NCCN2)Cc2ccccc21 [10(b), 4,5-Dihydro-2-[(1H-inden-2-yl)methyl]-1H-imidazole]
Kb [1, 6]: 0.0646 µM | Ki [2, 7]: 0.076 µM | responders at 10 mg/kg ([3]; sc, 10 mg/kg s.c., read-out: Antagonism of Clonidine Analgesia % A.): 70%

C[C@@H]1c2ccccc2CC[C@@H]1CC1=NCCN1 (relative stereo) [Example 16, cis-4,5-Dihydro-2-[(1,2,3,4-tetrahydro-1-methyl-2-naphthalenyl)methyl]-1H-imidazole]
Kb [1, 6]: 0.0603 µM | Ki [2, 7]: 0.135 µM

CC1=C(CC2=NCCN2)CCc2ccccc21 [1(b), 2-[(3,4-Dihydro-1-methyl-2-naphthalenyl)methyl]-4,5-dihydro-1H-imidazole]
Kb [1, 6]: 0.0631 µM | ED50 (mice): 18 mg/kg | Ki [2, 7]: 0.0119 µM | responders at 100 mg/kg [3, 12]: 50% | ED50 ([3]; po): 111 mg/kg

COc1ccc2c(c1)CCC(CC1=NCCN1)=C2C [8(b), 2-[(3,4-Dihydro-6-methoxy-1-methyl-2-naphthalenyl)methyl]-4,5-dihydro-1H-imidazole]
inhibition at 0.5 µM [1, 9]: 1% | inhibition at 1 µM [2, 10]: 53%

CC1=C(CC2=NC(C)CN2)CCc2ccccc21 (stereo not shown) [Example 6, 2-[(3,4-Dihydro-1-methyl-2-naphthalenyl)methyl]-4,5-dihydro-4-methyl-1H-imidazole]
inhibition at 0.001 µM ([1]; rat, at 1 (head: Conc. (nM)), clonidine 10 nM): 3% | inhibition at 1 µM [2, 10]: 59% | responders at 100 mg/kg [3, 8]: 20%

CC(C1=Cc2ccccc2CC1)C1=NCCN1 (stereo not shown) [7(b), 2-[1-(3,4-Dihydro-2-naphthalenyl)ethyl]-4,5-dihydro-1H-imidazole]
Kb [1, 6]: 0.0372 µM | Ki [2, 7]: 0.032 µM | responders at 30 mg/kg [3, 11]: 70%

c1ccc2c(c1)CCCC2C1=NCCN1 (stereo not shown) [tetrahydrozoline, 2-(1,2,3,4-tetrahydro-1-naphthyl)-2-imidazoline, reference compound]
α2 -adrenergic antagonist activity (in words, background section) (α2 -adrenergic [5]): do not possess α2 -adrenergic antagonist activity | α2 -adrenergic antagonist activity (in words) (α2 -adrenergic [4]): essentially devoid of such activity
